In patent US20200155555A1, “VITAMIN RECEPTOR DRUG DELIVERY CONJUGATES FOR TREATING INFLAMMATION” (Endocyte, Inc., priority 2007, published 2020):

How the values were obtained:
[1] = Plasma pharmacokinetics after a single i.v. or s.c. dose of EC0565; conditions: rats
Experimental: The bioavailability of EC0565 after subcutaneous injection was measured. Female Lewis rats with rounded tip jugular vein catheters (Harlan) were fed regular rodent diet. The treated animals were given a single intravenous or subcutaneous dose of EC0565 at 2 μmol/kg. […] For subcutaneous administration (FIG. 52B), whole blood samples (300 μl) were collected from the animals at 1 min, 10 min, 30 min, 1 h, 2 h, 3 h, 4 h, 8 h, and 12 h post injection. The blood samples were placed into anti-coagulant tubes containing 1.7 mg/mL of K3-EDTA and 0.35 mg/mL of N-maleoyl-beta-alanine (0.35 mg/mL). Plasma samples were obtained by centrifugation for 3 min at ˜2,000 g and stored at −80° C. The amount of EC0565 and its released base drug (everolimus) were determined by HPLC using the EC0565 injection solution as the standard.

[2] = test system: Proliferating Cell Nuclear Antigen (PCNA) in RAW264.7 cells; assay: Western blot for proliferating cell nuclear antigen; format: cell-based, murine; conditions: 1-1000 nM; EC0565 2 h treatment and 48 h chase, everolimus 48 h
[3] = test system: rats with adjuvant-induced arthritis (AIA); assay: Adjuvant-induced arthritis (AIA) model
Experimental: Female Lewis rats were fed a folate-deficient diet (Harlan Teklad, Indianapolis, Ind.) for 9-10 days prior to arthritis induction. The adjuvant-induced arthritis (AIA) was induced by intradermal inoculation (at the base of tail) of 0.5 mg of heat-killed Mycobacteria butyricum (BD Diagnostic Systems, Sparks, Md.) in 100 μL light mineral oil (Sigma). Ten days after arthritis induction, paw edema in rats was assessed using a modified arthritis scoring system: 0=no arthritis; 1=swelling in one type of joint; 2=swelling in two types of joint; 3=swelling in three types of joint; 4=swelling of the entire paw. A total score for each rat is calculated by summarizing the scores for each of the four paws, giving a maximum score of 16 for each rat. On Day 10 post arthritis induction, rats with a total arthritis score of ≥2 were removed from the study and the remaining rats were distributed evenly across the control and treatment groups (n=5 for all groups except that n=2-3 for healthy controls). All treatments started on Day 10 unless mentioned otherwise. […]
Rats with adjuvant arthritis were treated subcutaneously with EC0932 (250 nmol/kg) in the absence or presence of 500-fold excess of EC0923 (125 μmol/kg) on days 10, 13, 17, and 20 post arthritis induction. The animals in the healthy and arthritis control groups were left untreated. The arthritis scores and animal body weights were recorded three times a week (see FIG. 19A, B). At the completion of study (day 24), the rats were euthanized by CO2 asphyxiation and processed for paw and spleen weights (see FIG. 20A, B).
The rat adjuvant induced arthritis (AIA) model resembles the characteristics of RA in humans and has been widely used to study the impact of novel anti-inflammatory agents.

[4] = target: T1, DHFR (Mus musculus, UniProt P00375); assay: DHFR activity in lysate of treated RAW264.7 cells; format: cell-based, murine; conditions: excess folic acid alone, 10 μM
T1 construct: endogenous in cells; host or cells: RAW264.7 cells
T1 sequence (P00375 1-187): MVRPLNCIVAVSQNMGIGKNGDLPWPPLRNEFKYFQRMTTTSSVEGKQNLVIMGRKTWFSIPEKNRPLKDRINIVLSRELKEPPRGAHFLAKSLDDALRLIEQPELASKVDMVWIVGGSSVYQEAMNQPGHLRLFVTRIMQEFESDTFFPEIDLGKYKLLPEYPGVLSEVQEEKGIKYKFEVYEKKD
Experimental: RAW264.7 cells were treated with vehicle (medium), EC0746 (100 nM) without or with 100-fold excess free folate, aminopterin (AMT, 100 nM), methotrexate (MTX, 100 nM), or excess free folate alone (10 μM). After 1 h incubation, the drug-containing media were replaced with fresh medium and the cells were allowed to incubate further for 24 h. At the end of incubation, the cells were lysed and the DHFR activity in cell lysates was measured using a commercial DHFR assay kit (Sigma-Aldrich, Saint Louis, Mo.).

[5] = oral everolimus 500 nmol/kg tiw

CO[C@H]1C[C@@H]2CC[C@@H](C)[C@@](O)(O2)C(=O)C(=O)N2CCCC[C@H]2C(=O)O[C@H]([C@H](C)C[C@@H]2CC[C@@H](OCCOC(=O)OCCSSC[C@H](NC(=O)[C@H](CCC(=O)NC[C@H](O)[C@@H](O)[C@H](O)[C@H](O)CO)NC(=O)[C@H](CCC(=O)O)NC(=O)[C@H](CCC(=O)NC[C@H](O)[C@@H](O)[C@H](O)[C@H](O)CO)NC(=O)[C@H](CCC(=O)O)NC(=O)[C@H](CCC(=O)NC[C@H](O)[C@@H](O)[C@H](O)[C@H](O)CO)NC(=O)CC[C@H](NC(=O)c3ccc(NCc4cnc5nc(N)[nH]c(=O)c5n4)cc3)C(=O)O)C(=O)O)[C@H](OC)C2)CC(=O)[C@H](C)/C=C(\C)[C@@H](O)[C@@H](OC)C(=O)[C@H](C)C[C@H](C)/C=C/C=C/C=C/1C [EC0565, Everolimus-EC0488 Conjugate]
free drug (everolimus) exposure/release in plasma, based on AUC ([1]; single intravenous dose of EC0565, 2 μmol/kg): approximately 18%
free drug (everolimus) exposure/release in plasma, based on AUC ([1]; single subcutaneous dose of EC0565, 2 μmol/kg): ~17%

CO[C@H]1C[C@@H]2CC[C@@H](C)[C@@](O)(O2)C(=O)C(=O)N2CCCC[C@H]2C(=O)O[C@H]([C@H](C)C[C@@H]2CC[C@@H](OCCO)[C@H](OC)C2)CC(=O)[C@H](C)/C=C(\C)[C@@H](O)[C@@H](OC)C(=O)[C@H](C)C[C@H](C)/C=C/C=C/C=C/1C [everolimus]
effect on PCNA in synchronized RAW264.7 cells [2]: inhibited PCNA activities
spleen weight compared to arthritic controls ([3]; 500 nmol/kg 3 times a week, EC0565 sc, everolimus oral): significantly decreased spleen weight compared to arthritic controls
decrease in dorsal to ventral paw thickness [3, 5]: 44%
decrease in summed histological score [3, 5]: 52%
reductions in all scored histology parameters vs untreated controls [3, 5]: 44-61%

Nc1nc2ncc(CNc3ccc(C(=O)N[C@@H](CCC(=O)O)C(=O)O)cc3)nc2c(=O)[nH]1 [folic acid]
effect on DHFR activity in RAW264.7 cells [4]: did not have any impact
